{"source": "ChEMBL document CHEMBL1201862", "about": "“PubChem BioAssay data set” (2004)", "key": {"Coagulation factor XII": {"molecular_target": "Coagulation factor XII (Homo sapiens, UniProt P00748)", "test": "Factor XIIa Dose Response Confirmation from Single Well HTS. [Related pubchem assays (depositor defined):AID701]", "assay_type": "functional"}, "Prothrombin": {"molecular_target": "Prothrombin (Bos taurus, UniProt P00735)", "test": "thrombin inhibition, dose response, biochemical, fluorescence polarization, uHTS hits (AID 602369)", "assay_type": "functional"}, "[1]": {"molecular_target": "T1, Voltage-gated N-type calcium channel alpha-1B subunit/Amyloid beta A4 precursor protein-binding family A member 1 (Homo sapiens, UniProt Q00975+Q02410)", "T1 sequence (Q00975 whole entry)": "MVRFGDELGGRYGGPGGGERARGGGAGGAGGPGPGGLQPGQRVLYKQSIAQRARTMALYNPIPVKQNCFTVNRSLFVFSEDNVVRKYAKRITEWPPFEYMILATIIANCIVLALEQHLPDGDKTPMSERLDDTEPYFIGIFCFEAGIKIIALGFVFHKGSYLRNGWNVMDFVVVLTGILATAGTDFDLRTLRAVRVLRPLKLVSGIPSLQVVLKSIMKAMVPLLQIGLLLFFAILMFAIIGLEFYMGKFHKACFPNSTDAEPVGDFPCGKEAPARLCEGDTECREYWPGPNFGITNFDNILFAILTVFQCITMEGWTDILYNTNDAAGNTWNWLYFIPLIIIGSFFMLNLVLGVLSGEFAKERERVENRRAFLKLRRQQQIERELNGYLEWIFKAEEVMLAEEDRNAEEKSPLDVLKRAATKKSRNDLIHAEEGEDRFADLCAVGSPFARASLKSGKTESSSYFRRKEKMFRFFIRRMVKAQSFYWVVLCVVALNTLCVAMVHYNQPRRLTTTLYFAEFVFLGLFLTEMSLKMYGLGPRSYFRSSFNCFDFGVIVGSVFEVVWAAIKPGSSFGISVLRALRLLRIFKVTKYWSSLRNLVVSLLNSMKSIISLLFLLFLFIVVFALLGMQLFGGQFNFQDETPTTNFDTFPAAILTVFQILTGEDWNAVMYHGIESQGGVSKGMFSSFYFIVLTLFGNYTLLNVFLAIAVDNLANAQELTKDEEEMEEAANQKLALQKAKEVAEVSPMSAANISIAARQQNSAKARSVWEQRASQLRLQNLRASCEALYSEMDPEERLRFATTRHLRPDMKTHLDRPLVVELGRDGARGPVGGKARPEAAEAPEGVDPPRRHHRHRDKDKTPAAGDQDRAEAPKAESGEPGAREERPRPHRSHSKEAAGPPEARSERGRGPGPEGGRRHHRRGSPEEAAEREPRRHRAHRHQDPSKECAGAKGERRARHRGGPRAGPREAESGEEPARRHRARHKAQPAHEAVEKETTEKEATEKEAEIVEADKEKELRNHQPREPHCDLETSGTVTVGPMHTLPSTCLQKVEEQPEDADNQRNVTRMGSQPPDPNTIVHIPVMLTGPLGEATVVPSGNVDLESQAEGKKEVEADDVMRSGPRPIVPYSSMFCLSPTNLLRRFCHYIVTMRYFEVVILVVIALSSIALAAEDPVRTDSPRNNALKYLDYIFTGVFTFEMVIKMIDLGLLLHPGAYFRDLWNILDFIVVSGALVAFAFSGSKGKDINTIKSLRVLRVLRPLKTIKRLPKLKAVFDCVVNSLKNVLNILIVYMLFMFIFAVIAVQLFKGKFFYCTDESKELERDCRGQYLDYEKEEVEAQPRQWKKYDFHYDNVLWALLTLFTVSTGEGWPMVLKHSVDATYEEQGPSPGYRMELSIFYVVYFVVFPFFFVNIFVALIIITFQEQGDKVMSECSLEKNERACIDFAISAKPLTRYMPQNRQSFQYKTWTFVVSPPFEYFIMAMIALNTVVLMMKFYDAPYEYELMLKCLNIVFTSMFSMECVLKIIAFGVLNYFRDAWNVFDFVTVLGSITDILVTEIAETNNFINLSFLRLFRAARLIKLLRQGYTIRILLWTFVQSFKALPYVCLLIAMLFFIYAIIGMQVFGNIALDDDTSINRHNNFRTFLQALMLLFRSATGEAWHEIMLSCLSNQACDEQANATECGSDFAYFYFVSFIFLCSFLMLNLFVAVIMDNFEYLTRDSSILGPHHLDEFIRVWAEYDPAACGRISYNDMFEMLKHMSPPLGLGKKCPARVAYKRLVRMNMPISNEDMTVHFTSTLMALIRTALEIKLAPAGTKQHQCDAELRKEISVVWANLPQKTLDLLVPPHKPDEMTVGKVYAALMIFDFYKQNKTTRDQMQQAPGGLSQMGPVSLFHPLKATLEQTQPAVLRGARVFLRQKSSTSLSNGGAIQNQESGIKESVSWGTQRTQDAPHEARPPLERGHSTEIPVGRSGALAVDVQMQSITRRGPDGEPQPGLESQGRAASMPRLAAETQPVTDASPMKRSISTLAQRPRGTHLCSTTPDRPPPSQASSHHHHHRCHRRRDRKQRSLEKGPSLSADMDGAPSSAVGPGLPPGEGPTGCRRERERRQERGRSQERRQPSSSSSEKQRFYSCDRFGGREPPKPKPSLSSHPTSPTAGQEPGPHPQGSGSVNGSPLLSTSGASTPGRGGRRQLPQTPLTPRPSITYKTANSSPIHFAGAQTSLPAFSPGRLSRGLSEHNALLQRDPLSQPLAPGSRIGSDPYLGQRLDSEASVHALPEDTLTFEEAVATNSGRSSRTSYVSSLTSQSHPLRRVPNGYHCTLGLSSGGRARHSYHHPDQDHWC", "T1 sequence (Q02410 whole entry)": "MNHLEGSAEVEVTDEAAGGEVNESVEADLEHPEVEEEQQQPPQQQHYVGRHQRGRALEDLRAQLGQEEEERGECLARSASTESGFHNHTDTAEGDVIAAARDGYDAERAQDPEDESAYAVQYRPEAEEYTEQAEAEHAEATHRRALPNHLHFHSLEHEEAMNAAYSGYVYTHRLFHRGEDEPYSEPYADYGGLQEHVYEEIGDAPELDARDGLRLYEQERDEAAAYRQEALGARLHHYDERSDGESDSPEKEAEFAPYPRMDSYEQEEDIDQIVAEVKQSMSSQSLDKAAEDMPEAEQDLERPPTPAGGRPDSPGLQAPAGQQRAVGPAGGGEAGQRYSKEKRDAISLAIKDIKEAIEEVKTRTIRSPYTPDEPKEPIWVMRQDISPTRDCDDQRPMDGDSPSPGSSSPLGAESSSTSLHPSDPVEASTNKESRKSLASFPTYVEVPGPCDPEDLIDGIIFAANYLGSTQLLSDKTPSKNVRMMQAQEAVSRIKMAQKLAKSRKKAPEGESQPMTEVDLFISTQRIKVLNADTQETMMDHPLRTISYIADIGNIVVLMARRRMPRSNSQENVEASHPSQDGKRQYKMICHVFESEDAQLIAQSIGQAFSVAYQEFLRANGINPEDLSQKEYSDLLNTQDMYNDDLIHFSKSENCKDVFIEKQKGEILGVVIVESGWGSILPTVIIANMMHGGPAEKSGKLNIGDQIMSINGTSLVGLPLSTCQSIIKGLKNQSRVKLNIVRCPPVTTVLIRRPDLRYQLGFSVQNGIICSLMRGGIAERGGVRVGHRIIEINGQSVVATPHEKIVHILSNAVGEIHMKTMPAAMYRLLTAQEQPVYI", "assay_type": "protein assay"}, "[2]": {"molecular_target": "72 kDa type IV collagenase (Homo sapiens, UniProt P08253)", "test": "Dose Response validation of uHTS RPN11 inhibitor hits using a MMP-2 Fluorescence assay.", "assay_type": "functional"}, "[3]": {"molecular_target": "26S proteasome non-ATPase regulatory subunit 14 (Homo sapiens, UniProt O00487)", "test": "inhibition of proteasome subunit RPN11 – biochemical, fluorescence polarization, uHTS hits, confirmation (AID 602368)", "assay_type": "functional"}, "[4]": {"molecular_target": "T1, Voltage-gated N-type calcium channel alpha-1B subunit/Amyloid beta A4 precursor protein-binding family A member 1", "assay_type": "protein assay", "remark": "listed apart in the source"}, "Cysteine protease ATG4B": {"molecular_target": "T2, Cysteine protease ATG4B (Homo sapiens, UniProt Q9Y4P1)", "T2 sequence (Q9Y4P1 whole entry)": "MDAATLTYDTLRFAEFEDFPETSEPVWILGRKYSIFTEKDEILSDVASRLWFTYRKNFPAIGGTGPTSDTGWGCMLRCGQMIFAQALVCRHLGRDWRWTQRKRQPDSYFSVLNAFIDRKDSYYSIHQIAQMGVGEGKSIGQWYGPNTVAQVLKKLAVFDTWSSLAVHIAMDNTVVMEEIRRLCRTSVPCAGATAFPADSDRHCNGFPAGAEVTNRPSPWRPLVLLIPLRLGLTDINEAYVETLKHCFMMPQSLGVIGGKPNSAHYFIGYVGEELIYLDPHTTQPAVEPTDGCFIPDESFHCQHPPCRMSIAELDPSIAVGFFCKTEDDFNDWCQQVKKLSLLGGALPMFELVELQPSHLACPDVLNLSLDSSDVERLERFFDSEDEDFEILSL", "assay_type": "functional"}, "Phospholipase A2": {"molecular_target": "Phospholipase A2 (Homo sapiens, UniProt P04054)", "sequence (P04054 whole entry)": "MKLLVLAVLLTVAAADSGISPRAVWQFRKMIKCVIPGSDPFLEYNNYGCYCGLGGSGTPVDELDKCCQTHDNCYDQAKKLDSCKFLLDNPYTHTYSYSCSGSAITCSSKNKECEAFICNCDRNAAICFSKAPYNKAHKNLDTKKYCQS", "assay_type": "functional"}, "[5]": {"molecular_target": "T3, Histone-lysine N-methyltransferase NSD2 (Homo sapiens, UniProt O96028)", "T3 sequence (O96028 whole entry)": "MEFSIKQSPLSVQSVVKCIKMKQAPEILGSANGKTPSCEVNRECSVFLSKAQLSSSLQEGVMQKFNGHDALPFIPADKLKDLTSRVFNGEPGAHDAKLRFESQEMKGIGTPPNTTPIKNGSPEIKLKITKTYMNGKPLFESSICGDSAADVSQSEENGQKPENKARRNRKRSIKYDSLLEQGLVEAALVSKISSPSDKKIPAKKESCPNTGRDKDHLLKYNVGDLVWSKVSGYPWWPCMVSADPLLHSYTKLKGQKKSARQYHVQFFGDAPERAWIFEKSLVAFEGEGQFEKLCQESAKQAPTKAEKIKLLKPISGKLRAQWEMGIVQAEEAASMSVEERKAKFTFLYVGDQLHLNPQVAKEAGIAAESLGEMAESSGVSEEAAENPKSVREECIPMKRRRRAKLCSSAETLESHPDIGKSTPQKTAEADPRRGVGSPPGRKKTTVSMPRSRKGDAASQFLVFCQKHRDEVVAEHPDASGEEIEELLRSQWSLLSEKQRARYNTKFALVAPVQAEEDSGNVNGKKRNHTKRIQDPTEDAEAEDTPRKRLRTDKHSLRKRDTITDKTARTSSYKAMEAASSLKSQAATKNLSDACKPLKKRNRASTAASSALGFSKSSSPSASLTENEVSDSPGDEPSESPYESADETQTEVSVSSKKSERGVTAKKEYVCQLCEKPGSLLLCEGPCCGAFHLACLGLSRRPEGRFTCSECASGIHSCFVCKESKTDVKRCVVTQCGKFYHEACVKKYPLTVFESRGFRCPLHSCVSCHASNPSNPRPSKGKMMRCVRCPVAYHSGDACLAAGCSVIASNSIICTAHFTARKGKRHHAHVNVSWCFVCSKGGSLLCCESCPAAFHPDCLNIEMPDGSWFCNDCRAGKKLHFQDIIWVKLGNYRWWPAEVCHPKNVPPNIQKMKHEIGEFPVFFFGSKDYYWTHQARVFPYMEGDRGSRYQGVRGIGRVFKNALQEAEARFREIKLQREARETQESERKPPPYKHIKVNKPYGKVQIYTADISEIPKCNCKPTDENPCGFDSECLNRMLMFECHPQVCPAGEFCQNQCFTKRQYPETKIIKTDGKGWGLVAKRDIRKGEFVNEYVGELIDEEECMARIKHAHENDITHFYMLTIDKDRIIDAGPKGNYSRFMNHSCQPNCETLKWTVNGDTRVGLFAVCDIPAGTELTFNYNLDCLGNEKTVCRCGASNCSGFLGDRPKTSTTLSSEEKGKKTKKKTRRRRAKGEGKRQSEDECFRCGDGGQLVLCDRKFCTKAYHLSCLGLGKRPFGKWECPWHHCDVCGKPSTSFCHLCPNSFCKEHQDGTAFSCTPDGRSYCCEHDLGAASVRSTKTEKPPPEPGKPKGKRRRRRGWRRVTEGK", "assay_type": "biochemical"}, "Aminopeptidase N": {"molecular_target": "T4, Aminopeptidase N (Plasmodium falciparum FcB1/Columbia, UniProt O96935)", "T4 sequence (O96935 whole entry)": "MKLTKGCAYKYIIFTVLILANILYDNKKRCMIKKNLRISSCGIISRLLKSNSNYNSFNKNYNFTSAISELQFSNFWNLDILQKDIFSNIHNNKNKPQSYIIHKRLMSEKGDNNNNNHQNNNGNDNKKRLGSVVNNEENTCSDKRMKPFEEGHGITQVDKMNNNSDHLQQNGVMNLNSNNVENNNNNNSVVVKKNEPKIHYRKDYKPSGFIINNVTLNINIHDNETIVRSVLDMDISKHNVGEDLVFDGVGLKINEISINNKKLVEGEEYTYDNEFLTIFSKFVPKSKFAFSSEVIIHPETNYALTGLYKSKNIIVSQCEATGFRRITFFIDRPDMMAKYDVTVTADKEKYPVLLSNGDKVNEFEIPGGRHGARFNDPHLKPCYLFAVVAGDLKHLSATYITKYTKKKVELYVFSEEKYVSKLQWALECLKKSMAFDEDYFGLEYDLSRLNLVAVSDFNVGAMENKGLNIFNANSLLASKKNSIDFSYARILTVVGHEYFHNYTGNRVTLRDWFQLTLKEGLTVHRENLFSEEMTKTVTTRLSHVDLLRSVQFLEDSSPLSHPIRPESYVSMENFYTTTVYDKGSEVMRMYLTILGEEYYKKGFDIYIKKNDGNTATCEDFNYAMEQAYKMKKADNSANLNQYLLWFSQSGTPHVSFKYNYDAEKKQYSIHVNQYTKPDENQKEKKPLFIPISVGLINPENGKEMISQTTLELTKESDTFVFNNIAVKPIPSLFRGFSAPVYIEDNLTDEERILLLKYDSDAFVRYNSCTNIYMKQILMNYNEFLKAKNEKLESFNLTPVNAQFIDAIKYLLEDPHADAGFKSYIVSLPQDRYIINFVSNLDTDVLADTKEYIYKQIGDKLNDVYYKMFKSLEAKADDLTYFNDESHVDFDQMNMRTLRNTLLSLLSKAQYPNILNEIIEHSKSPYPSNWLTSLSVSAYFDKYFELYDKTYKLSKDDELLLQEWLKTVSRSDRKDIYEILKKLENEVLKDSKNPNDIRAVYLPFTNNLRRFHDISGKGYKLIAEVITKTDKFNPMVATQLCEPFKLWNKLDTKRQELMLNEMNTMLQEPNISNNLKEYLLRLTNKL", "test": "P. falciparum M1AAP inhibitors, biochemical, fluorogenic H-Leu-NHMec substrate, 1536-well (AID 1445)", "parameters": "species or system Plasmodium falciparum 3D7, 3D7"}, "[6]": {"test": "inhibitors of firefly luciferase expression or activity, dose response, H4 neuroglioma cells, luminescence (AID 1990)", "assay_type": "functional, cell-based"}, "[7]": {"test": "Luminescence Cell-Based Dose Response HTS to Identify Inhibitors of 5'UTR Stem-Loop Driven Prion Protein mRNA Translation in H4 Neuroglioblastoma Cells. [Related pubchem assays: 1827 (Project Summary), 1813 (Primary HTS)]", "assay_type": "functional"}, "[8]": {"molecular_target": "Sphingosine 1-phosphate receptor 4 (Homo sapiens, UniProt O95977)", "sequence (O95977 whole entry)": "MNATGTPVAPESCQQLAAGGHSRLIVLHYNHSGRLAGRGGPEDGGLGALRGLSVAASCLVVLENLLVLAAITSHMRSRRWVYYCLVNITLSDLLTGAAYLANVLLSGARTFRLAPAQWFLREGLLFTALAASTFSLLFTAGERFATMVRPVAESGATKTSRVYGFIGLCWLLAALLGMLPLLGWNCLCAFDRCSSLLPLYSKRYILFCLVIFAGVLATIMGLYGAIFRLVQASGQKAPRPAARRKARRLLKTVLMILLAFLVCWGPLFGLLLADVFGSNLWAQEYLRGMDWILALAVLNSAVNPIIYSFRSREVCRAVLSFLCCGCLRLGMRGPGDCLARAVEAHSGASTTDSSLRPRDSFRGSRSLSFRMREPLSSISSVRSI", "test": "Late-stage fluorescence dose response cell-based assay to identify agonists of the Sphingosine 1-Phosphate Receptor 4 (S1P4): purchased compounds EC50. [Related pubchem assays (depositor defined):AID1509, AID1523, AID1563, AID1686, AID1701, AID1801]", "assay_type": "functional"}, "[9]": {"test": "inhibitors of SNCA 5'UTR-driven reporter translation, confirmation, H4 neuroglioma cells, luminescence (AID 1988)", "assay_type": "functional, cell-based"}, "CAAX prenyl protease 2": {"molecular_target": "T5, CAAX prenyl protease 2 (Saccharomyces cerevisiae S288c, UniProt Q03530)", "T5 sequence (Q03530 whole entry)": "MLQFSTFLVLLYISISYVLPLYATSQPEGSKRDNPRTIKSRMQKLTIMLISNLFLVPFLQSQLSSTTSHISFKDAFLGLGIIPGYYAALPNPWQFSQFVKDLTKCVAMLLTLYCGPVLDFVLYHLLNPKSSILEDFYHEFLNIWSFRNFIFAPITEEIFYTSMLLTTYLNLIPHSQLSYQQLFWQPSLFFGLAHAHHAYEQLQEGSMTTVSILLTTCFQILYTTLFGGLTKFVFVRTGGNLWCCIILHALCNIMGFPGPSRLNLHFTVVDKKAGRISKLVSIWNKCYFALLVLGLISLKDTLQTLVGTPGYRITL", "assay_type": "biochemical"}, "Trypsin": {"molecular_target": "Trypsin (Sus scrofa, UniProt P00761)", "sequence (P00761 whole entry)": "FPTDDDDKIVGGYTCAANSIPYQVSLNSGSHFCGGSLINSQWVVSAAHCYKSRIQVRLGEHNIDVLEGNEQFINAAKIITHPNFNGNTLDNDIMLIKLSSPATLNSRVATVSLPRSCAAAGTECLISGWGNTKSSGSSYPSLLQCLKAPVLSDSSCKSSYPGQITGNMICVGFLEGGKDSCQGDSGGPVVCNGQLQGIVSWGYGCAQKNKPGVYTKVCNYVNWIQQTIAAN", "test": "porcine trypsin inhibitors, dose response, selectivity assay for Rce1 protease inhibitor project, biochemical, quenched peptide fluorescence, cherry-pick (AID 488789)"}, "[10]": {"molecular_target": "Type-1 angiotensin II receptor (Homo sapiens, UniProt P30556)", "sequence (P30556 whole entry, the tested form may be a part)": "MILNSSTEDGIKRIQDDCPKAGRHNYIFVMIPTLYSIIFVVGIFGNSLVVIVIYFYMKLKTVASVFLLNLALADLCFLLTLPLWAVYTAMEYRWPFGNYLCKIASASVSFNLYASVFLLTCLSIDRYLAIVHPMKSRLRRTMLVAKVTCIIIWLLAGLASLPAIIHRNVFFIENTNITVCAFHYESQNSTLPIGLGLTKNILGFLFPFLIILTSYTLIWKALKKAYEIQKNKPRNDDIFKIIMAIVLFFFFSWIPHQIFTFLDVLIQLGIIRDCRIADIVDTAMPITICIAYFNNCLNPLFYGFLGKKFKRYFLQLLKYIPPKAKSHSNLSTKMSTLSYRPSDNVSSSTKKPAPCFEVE", "test": "AT1 receptor agonists, dose response, selectivity assay for APJ receptor agonist project, cell-based, uHTS hits (AID 488865);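 also: beta-arrestin recruitment to AT1 measured by enzyme fragment complementation luminescence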", "assay_type": "functional"}, "[11]": {"molecular_target": "Luciferin 4-monooxygenase (Photinus pyralis, UniProt P08659)", "sequence (P08659 whole entry)": "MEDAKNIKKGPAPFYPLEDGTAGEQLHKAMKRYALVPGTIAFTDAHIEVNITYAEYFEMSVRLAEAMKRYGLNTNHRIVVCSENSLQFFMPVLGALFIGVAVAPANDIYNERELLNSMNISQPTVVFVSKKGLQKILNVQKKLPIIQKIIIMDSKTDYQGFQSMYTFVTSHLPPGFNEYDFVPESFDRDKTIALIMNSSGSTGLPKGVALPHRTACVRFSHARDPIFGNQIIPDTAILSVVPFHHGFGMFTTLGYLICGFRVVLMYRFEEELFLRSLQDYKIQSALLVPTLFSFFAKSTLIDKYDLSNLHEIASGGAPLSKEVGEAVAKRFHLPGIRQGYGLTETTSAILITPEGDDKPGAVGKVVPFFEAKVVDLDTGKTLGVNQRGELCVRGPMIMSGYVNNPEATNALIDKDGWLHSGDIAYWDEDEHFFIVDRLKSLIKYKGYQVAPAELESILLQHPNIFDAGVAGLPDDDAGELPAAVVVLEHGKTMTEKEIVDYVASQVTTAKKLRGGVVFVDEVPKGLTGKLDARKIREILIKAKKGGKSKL", "test": "Counter Screen for Luciferase-based Assay Positives. [Related pubchem assays: 620, 618, 411 ]"}, "HT-1080": {"system": "HT-1080", "test": "cytotoxicity in HT1080 fibrosarcoma cells, cell-based, fluorescence readout (AID 620)", "assay_type": "functional", "conditions": "Homo sapiens"}, "[12]": {"molecular_target": "E3 ubiquitin-protein ligase Mdm2/Protein Mdm4 (Homo sapiens, UniProt O15151+Q00987)", "test": "Mdm2-MdmX interaction inhibitors, dose response, luminescence detection (AID 504593)", "assay_type": "functional"}, "[13]": {"molecular_target": "Aryl hydrocarbon receptor (Homo sapiens, UniProt P35869)", "test": "Luminescence-based cell-based high throughput dose response assay for activators of the Aryl Hydrocarbon Receptor (AHR). [Related pubchem assays: 2796 (Primary screen (AHR activators in singlicate)), 2845 (Confirmation screen (AHR activators in triplicate)), 434939 (Counterscreen (PXR activators in triplicate)), 2804 (Summary (AHR activators))]", "assay_type": "ADME"}}, "note": "Activity calls are given as the source filed them.", "data": [{"smiles": "COc1cc(OC)c2c(N)c(C#N)c(C(F)(F)C(F)(F)F)nc2c1", "values": [{"measurement": "IC50", "setting": "Coagulation factor XII", "result": "> 50 µM (inactive)"}]}, {"smiles": "CCc1ccc(-n2cccc2/C=C2/C(=N)N3C(=NC2=O)SN=C3S(C)(=O)=O)cc1", "values": [{"measurement": "IC50", "setting": "Prothrombin", "result": "45.8 µM (active)"}, {"measurement": "IC50", "setting": "[1]", "result": "7.3 µM (active)"}, {"measurement": "IC50", "setting": "[2]", "result": "30.9 µM (active)"}, {"measurement": "IC50", "setting": "[3]", "result": "21.8 µM (active)"}, {"measurement": "IC50", "setting": "[4]", "result": "> 50 µM (inactive)"}, {"measurement": "IC50", "setting": "Cysteine protease ATG4B", "result": "11.2 µM (active)"}, {"measurement": "IC50", "setting": "Phospholipase A2", "result": "12 µM (active)"}, {"measurement": "AC50", "setting": "[5]", "result": "11.5 µM (active)"}, {"measurement": "IC50", "setting": "Aminopeptidase N", "result": "34.4 µM (active)"}]}, {"smiles": "CCc1ccc(NC(=O)C(C)OC(=O)c2c(C)nn(Cc3ccccc3)c2Cl)cc1", "note": "(stereo unspecified)", "values": [{"measurement": "EC50", "setting": "[6]", "result": "16.4 µM (active)"}, {"measurement": "EC50", "setting": "[7]", "result": "> 120 µM (not active)"}, {"measurement": "EC50", "setting": "[8]", "result": "> 50 µM (inactive)"}, {"measurement": "EC50", "setting": "[9]", "result": "> 120 µM (not active)"}]}, {"smiles": "CCC(C)NC(=O)CSC1=Nc2ccccc2C2=NC(CC(=O)NCc3ccc(F)cc3)C(=O)N12", "note": "(stereo unspecified)", "values": [{"measurement": "AC50", "setting": "CAAX prenyl protease 2", "result": "15.8 µM (active)"}, {"measurement": "AC50", "setting": "Trypsin", "result": "16.1 µM (active)"}, {"measurement": "EC50", "setting": "[10]", "result": "> 100 µM (inactive)"}]}, {"smiles": "Cc1nc(NC2=NCN(CCCN3CCOCC3)CN2)nc2c(C)cccc12", "values": [{"measurement": "EC50", "setting": "[11]", "result": "3.36 µM (active)"}, {"measurement": "EC50", "setting": "HT-1080", "result": "51.5 µM (not active)"}, {"measurement": "IC50", "setting": "[12]", "result": "3.92 µM (active)"}, {"measurement": "EC50", "setting": "[13]", "result": "12.1 µM (not active)"}]}]}
